Results reported in patent US10175256B2, “Compositions and methods utilizing lysophosphatidylcholine scaffolds” (National University Of Singapore, priority 2013, dated 2019).
Entries after “also recorded” stand apart in the source; their conditions may differ.

Assays:
mouse Mfsd2a [1] = molecular target: T1, mouse Mfsd2a (Mus musculus, UniProt Q9DA75); assay: TLC analysis of phospholipids (bio-incorporation of LPC into PC); format: cell-based
T1 construct: expressed in transfected cells; host or cells: HEK293
T1 sequence (Q9DA75 1-534): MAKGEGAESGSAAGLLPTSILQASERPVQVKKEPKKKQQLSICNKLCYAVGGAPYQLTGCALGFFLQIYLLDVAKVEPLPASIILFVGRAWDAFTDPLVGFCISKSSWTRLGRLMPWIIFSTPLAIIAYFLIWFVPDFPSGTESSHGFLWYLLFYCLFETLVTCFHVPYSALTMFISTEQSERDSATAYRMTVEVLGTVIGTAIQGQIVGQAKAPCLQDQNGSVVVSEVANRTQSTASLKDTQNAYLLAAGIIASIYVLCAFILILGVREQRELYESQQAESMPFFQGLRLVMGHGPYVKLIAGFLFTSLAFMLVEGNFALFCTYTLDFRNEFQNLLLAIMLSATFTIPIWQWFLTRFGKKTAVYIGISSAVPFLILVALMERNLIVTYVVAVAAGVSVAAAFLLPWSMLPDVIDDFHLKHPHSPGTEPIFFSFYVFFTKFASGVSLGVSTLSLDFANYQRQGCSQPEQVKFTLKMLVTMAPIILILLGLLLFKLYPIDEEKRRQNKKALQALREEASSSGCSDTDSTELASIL
Protocol: HEK293 cells overexpressing with pcDNA3.1Mfsd2a (WT), pcDNA3.1Mfsd2aD92A (D92A), pcDNA3.1Mfsd2aD96A, or pcDNA3.1 (mock) plasmids or human Mfsd2a (in Sport6 plasmid) were washed once with serum-free DMEM medium before incubation with 50 μM radiolabeled LPC [^14C]oleate, LPC [^14C]DHA or with 50 μM TopFluor-LPC and NBD-LPC. Lipids were extracted twice with HIP buffer for 30 mins. Lipids were dried with nitrogen stream and reconstituted in chloroform and spotted on TLC plates (Milipore). Solvent for phospholipid separation was chloroform/methanol/ammonia solution (25%) (50:25:6, per volume). TLC plates of radiolabeled phospholipids were dried for 30 mins and exposed overnight to Phosphorscreens and scanned with Typhoon FLA 9000 scanner (Agilent). TLC plates of fluorescent phospholipids were scanned with Typhoon FLA 9000 scanner and quantified using Imagequant software.

mouse Mfsd2a [2] = molecular target: T1, mouse Mfsd2a; assay: In vitro transport (uptake) of radiolabeled and fluorescent LPCs in HEK293 cells overexpressing Mfsd2a; format: cell-based; details: for comparison of Mfsd2a-mediated uptake (capacity to transport): HEK293 cells expressing Mfsd2a
Protocol: Uptake assays of radiolabeled LPCs or fluorescent LPCs were tested using HEK293 cells overexpressing Mfsd2a and mutants constructs. Briefly, HEK293 cells at 90-95% confluency were transfected using LIPOFECTAMINE 2000 (Invitrogen) with pcDNA3.1Mfsd2a (WT), pcDNA3.1Mfsd2aD92A (D92A), pcDNA3.1Mfsd2aD96A (D96A), or pcDNA3.1 (mock) plasmids. Uptake assays were performed after 24 hours of transfections. Prior to ligand incubation, HEK293 transfected cells were washed with serum-free DMEM before assays. For concentration and time dependent assays, radiolabeled LPCs were diluted in pre-warmed DMEM media. For sodium dependent assay, radiolabeled LPCs were diluted in transport buffer (5 mM KCl, 10 mM Hepes, pH 7.4) with 150 mM NaCl or 150 mM choline chloride. For sodium concentration dependent assays, any reductions in the concentration of NaCl were replaced by choline chloride in order to maintain a constant cation molarity of 150 mM. All assays were performed in 12 well-plates with triplicates and at 37° C.

Mfsd2a [3] = molecular target: T2, Mfsd2a (Mus musculus, UniProt Q9DA75); assay: In vivo transport of radiolabeled, fluorescent LPCs and unesterified DHA in Mfsd2a KO and wild-type mice; parameters: from tissue; host or cells: living mice; brain (blood-brain barrier endothelium), liver, heart; fetal brain
T2 sequence (Q9DA75 1-534): T1 sequence (Q9DA75 1-534)
Protocol: Male and female mice of age of 6-8 weeks were IV injected with 75 μl of 20 mM radiolabeled LPC-[…], 100 μl of 10 mM LPC-[^14C]DHA/BSA complex or 82 μl of 12.2 mM [^14C]DHA/BSA complex in a total volume of 150 μl of phosphate-buffered saline. At 2 hours post injection, mice were anesthetized and perfused for 5 mins with PBS containing 0.5% BSA in order to remove blood and lipid tracer bound to the brain vasculature. Tissues were harvested for lipid extraction. For lipid extraction, tissues were weighed and similar amounts of tissues were homogenized in chloroform/methanol. Lipids from the organic phase were mixed with scintillant and scintillation counted. Similar experiments were also performed with an injection of 300 μg NBD-LPC/BSA or 300 μg TopFluor-LPC/BSA complex per mouse. In this experiment, mice were perfused for 5 mins with PBS followed 15 mins perfusion with 4% paraformaldehyde (PFA) for tissue fixation. Brain sections of WT and KO with a thickness of 40 μm were prepared and scanned using green fluorescence mode in Typhoon FLA 9000 scanner (Agilent). NBD-LPC accumulation was expressed as fluorescence of each section per its area. Dietary DHA transport from mother to fetus was also measured using [^14C]DHA/BSA complex. Pregnant females at e18.5 was gavaged with bolus of [^14C]DHA/BSA complex (200 μl of 10 mM [^14C]DHA/BSA/mouse). Brain of fetuses were collected 20 hours post-gavage and weighed. Lipid extraction and radioactivity were performed as described above.

Mfsd2a [4] = molecular target: T2, Mfsd2a; assay: Competition transport assay with LPC-[3H]palmitate as ligand; format: cell-based; parameters: expressed in transfected cells; host or cells: HEK293; details: 25 μM LPC-[3H]palmitate; for competition for transport/uptake of LPC-[3H]palmitate: 10-fold molar excess (250 μM) competitor, 30 mins (PAF 15 mins)
Protocol: Briefly, 24 h post transfection of HEK293 cells with pcDNA3.1Mfsd2a (WT), pcDNA3.1Mfsd2aD92A (D92A), pcDNA3.1Mfsd2aD96A, or pcDNA3.1 (mock) plasmids were washed once with serum-free DMEM medium before addition of a mixture of 25 μM radiolabeled LPC-palmitate and 250 μM cold competitors, which were dissolved in 12% BSA. Total BSA concentration was kept constant in samples with or without cold competitors. Assays were performed at 37° C. for 30 mins. Competition assays with other LPC analogs such as foscholine detergents, and PAF were performed under the same conditions except for 15 mins. The reduced reaction time was necessary in order to limit potential negative effects of detergents and bioactive lipids on cell survival. All assays were performed in 12 well-plates with triplicates and at 37° C.
We next sought to determine ligand specificity and the chemical features of the LPC ligands that are required for transport by Mfsd2a.

In the case of CCCCCCCCCCCCCCCCCC(=O)OC[C@@H](O)COP(=O)([O-])OCC[N+](C)(C)C [LPC-18:0], the “effect of cold LPC on transport of NBD-LPC” value (mouse Mfsd2a [1]; 10-fold molar excess of competitor) is reported as “suppressed”.
CCCCCCCCCCCCCCCC(=O)OC[C@@H](O)COP(=O)([O-])OCC[N+](C)(C)C [LPC-[^3H]palmitate, 1-palmitoyl 2-lysophosphocholine] was tested, and the “comparison of Mfsd2a-mediated uptake (capacity to transport)” value (mouse Mfsd2a [2]) was “highest capacity to transport LPC-DHA, followed by LPC-oleate, and LPC-palmitate”.
CCC=CCC=CCC=CCC=CCC=CCC=CCCC(=O)OC[C@@H](O)COP(=O)([O-])OCC[N+](C)(C)C [LPC-[^14C]DHA, 1-docosahexaenoyl 2-lysophosphocholine] was tested, and the “comparison of Mfsd2a-mediated uptake (capacity to transport)” value (mouse Mfsd2a [2]) was “highest capacity”, the “uptake of radiolabeled LPC by cells expressing Mfsd2a relative to control cells” value (mouse Mfsd2a [2]; HEK293 cells, wild-type Mfsd2a vs mock, LPC/BSA, 30 mins) was “enhanced concentration-dependent uptake” and the “conversion of transported LPCs into PCs” value (mouse Mfsd2a [1]; HEK293 cells expressing Mfsd2a, radiolabeled LPC, TLC) was “rapid conversion of transported LPCs into PCs”. For the same compound, the “reduction in brain uptake in Mfsd2a KO mice compared with wild-type” value (Mfsd2a [3]; i.v. injection, 2 hrs post-injection) was “more than 90%”, the “uptake in peripheral tissues of KO mice compared with wild-type” value (Mfsd2a [3]; i.v. injection, liver and heart, 2 hrs) was “not decreased” and the “brain uptake, unesterified DHA compared with LPC-DHA” value (Mfsd2a [3]; wild-type brain, same amount injected i.v., 2 hrs) was “far greater”.
CCCCCCCCCCCCC/C=C/[C@@H](O)[C@@H](N)COP(=O)([O-])OCC[N+](C)(C)C [Lysosphingomyelin] was tested, and the “competition for transport/uptake of LPC-[3H]palmitate” value (shortened to “competition for transport/uptake”) (Mfsd2a [4]) was “competed” and the “competition for transport/uptake” value (Mfsd2a [4]; listed as lysosphingomyelin) was “strong competition”.
CCCCCCCCCCCCCCCCOP(=O)([O-])OCC[N+](C)(C)C [Miltefosine] was tested, and the “competition of foscholines with LPC-[3H]palmitate” value (Mfsd2a [4]; 250 μM competitor, 15 mins) was “strong competition”.
C[N+](C)(C)CCOP(=O)([O-])OC[C@H](O)COC(=O)CCCCCCCCCCCNc1ccc([N+](=O)[O-])c2nonc12 [NBD-LPC] was tested, and the “uptake/transport of fluorescent lysolipid by cells expressing wild-type Mfsd2a” value (mouse Mfsd2a [2]; HEK293 cells, vs mock, D92A, D96A) was “transported by Mfsd2a; also recorded: significantly enhanced uptake activity”, the “bio-incorporation of fluorescent LPC into phospholipids (PC)” value (mouse Mfsd2a [1]; HEK293 cells, 50 μM, TLC) was “bio-incorporated into membrane phospholipids” and the “brain uptake (fluorescence of brain sections) in KO compared with wild-type” value (Mfsd2a [3]; 300 μg fluorescent LPC/BSA complex i.v.) was “significantly reduced”.
With C[N+](C)(C)CCOP(=O)([O-])OC[C@H](O)CO [glycerophosphatidylcholine, alpha-glycerylphosphocholine] the “competition for transport/uptake” value (Mfsd2a [4]) was “not a competitor”.
In the case of CCCCCCCCCCCCCCCCOC[C@@H](O)COP(=O)([O-])OCC[N+](C)(C)C [lysoplatelet activating factor], the “competition for transport/uptake” value (Mfsd2a [4]) is reported as “strong competitors”.
In the case of CCCCCCCCCCCCC/C=C/[C@@H](O)[C@@H](N)COP(=O)(O)O [sphingosine-1-phosphate], the “competition for transport/uptake” value (Mfsd2a [4]) is reported as “not a competitor” and the “competition for transport/uptake” value (Mfsd2a [4]; listed as sphingosine 1-phosphate) is reported as “did not compete”.
With lysophosphatidic acid [LPA] the “competition for transport/uptake” value (Mfsd2a [4]) was “non-competitive”.
In the case of lysophosphatidylethanolamine [LPE], the “competition for transport/uptake” value (Mfsd2a [4]) is reported as “weak competition”.
In the case of lysophosphatidylserine [LPS], the “competition for transport/uptake” value (Mfsd2a [4]) is reported as “weak competition”.
For platelet activating factor, the “competition for transport/uptake” value (Mfsd2a [4]) was “strong competitors” and the “competition for transport/uptake” value (Mfsd2a [4]; listed as PAF) was “strong competition”.
